Measurements from PMC6429502, “Synthesis and AChE-Inhibitory Activity of New Benzimidazole Derivatives” (Molecules, 2019).
Entries after “also recorded” stand apart in the source; their conditions may differ. Read-outs that look alike come from different tables or passages of the source.

How the values were obtained:
Type in all cases: biochemical
BChE = tested on: BChE
Protocol: New benzimidazole-triazole derivatives were designed, synthesized, and evaluated for their potential to inhibit AChE and BChE. First, all the synthesized compounds were tested at 10^−3 M and 10^−4 M concentrations.
The inhibitory activities of the compounds against AChE and BChE were determined in 96-well plates by modified Ellman’s method as defined in our previous studies. Donepezil and tacrine were used as reference drugs. A robotic system, Biotek Precision XS (Winooski, VT, USA), was used for all pipetting processes in the enzyme inhibition assay. Measurements of the percentage inhibition were carried out at 412 nm by using a BioTek-Synergy H1 microplate reader (Winooski, VT, USA). Inhibition potencies of synthesized compounds and IC50 of selected derivatives were calculated as reported previously.

AChE [1] = molecular target: T1, AChE (Electrophorus electricus, UniProt O42275); experiment: AChE inhibition, modified Ellman's method; settings: for IC50: determined using 10^−3–10^−9 M concentrations
AChE [2] = molecular target: T1, AChE; experiment: Enzyme kinetic studies of AChE inhibition (Lineweaver-Burk plots, secondary plots); settings: 2 × IC50, IC50 and IC50/2, substrate 600 µM to 18.75 µM
Protocol: Enzyme kinetic studies were carried out in order to determine the mechanism of AChE inhibition. The type of inhibition was forecast using linear Lineweaver-Burk plots. […] The initial velocity measurements were recorded by using different substrate concentrations ranging from 600 µM to 18.75 µM for AChE enzyme. The secondary plots of the Km/Vmax (slope) versus varying concentrations were used to calculate Ki (intercept on the x-axis) values of compounds [35]. The graphical analyses of the steady-state inhibition data for AChE enzyme are shown in Figure 1 and Figure 2, respectively.
Reversible inhibition consists of the following subtypes: mixed-type, competitive, uncompetitive, or noncompetitive. These types of inhibition can be determined with the help of Lineweaver-Burk plots. […] Namely, both compounds can bind to the free enzyme or the enzyme-substrate complex. […] It is known that these interactions occur quickly and can be easily reversed. Therefore, the enzyme and inhibitor complex is rapidly degraded immediately prior to irreversible inhibition. […] As a result, enzyme kinetics studies have shown the biological importance of compounds 3d and 3h due to their mixed type forces, unlike irreversible enzyme inhibitors.
Enzyme kinetic studies were performed for compounds 3d and 3h in order to determine the inhibition type on AChE. […]

T1 sequence (O42275 24-633): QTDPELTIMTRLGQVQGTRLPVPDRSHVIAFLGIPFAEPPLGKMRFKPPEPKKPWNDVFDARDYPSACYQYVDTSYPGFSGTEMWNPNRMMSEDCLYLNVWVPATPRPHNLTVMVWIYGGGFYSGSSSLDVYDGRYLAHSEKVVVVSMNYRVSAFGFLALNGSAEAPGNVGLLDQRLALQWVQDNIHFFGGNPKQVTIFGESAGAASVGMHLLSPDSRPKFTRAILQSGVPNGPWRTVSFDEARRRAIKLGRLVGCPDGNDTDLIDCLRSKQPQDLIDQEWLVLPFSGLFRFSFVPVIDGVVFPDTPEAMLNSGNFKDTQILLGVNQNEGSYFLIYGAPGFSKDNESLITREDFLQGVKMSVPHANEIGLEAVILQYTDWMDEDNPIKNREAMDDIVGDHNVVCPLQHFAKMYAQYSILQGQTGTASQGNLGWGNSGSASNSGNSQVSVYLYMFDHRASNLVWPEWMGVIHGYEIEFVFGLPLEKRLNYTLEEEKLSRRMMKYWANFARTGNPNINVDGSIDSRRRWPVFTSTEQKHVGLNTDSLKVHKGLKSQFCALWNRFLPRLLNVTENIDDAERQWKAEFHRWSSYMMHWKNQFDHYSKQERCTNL

Row | SMILES | % Inhibition BChE (BChE; 10^−3 M) | % Inhibition BChE (BChE; 10^−4 M) | % Inhibition AChE (AChE [1]; 10^−3 M) | % Inhibition AChE (AChE [1]; 10^−4 M) | % Inhibition of AChE (AChE [1]; 10^−5 M) | % Inhibition of AChE (AChE [1]; 10^−6 M) | % Inhibition of AChE (AChE [1]; 10^−7 M) | % Inhibition of AChE (AChE [1]; 10^−8 M) | % Inhibition of AChE (AChE [1]; 10^−9 M) | IC50 (AChE [1]) | type of AChE inhibition (AChE [2])
1 | CCn1c(SCC(=O)c2ccc(C#N)cc2)nnc1-c1ccc(-c2nc3cc(Cl)ccc3[nH]2)cc1 [3e, 2-(4-(4-Ethyl-5-(2-(4-cyanophenyl)-2-oxo-ethylthio)-4H-1,2,4-triazol-3yl)-phenyl)-5(6)-chloro-1H-benz-imidazole] | 38.22 ± 0.63% | 22.41 ± 0.47% | 77.29 ± 1.06% | 41.22 ± 0.84% |  |  |  |  |  |  | 
2 | Cc1ccc(C(=O)CSc2nnc(-c3ccc(-c4nc5cc(Cl)ccc5[nH]4)cc3)n2C)cc1 [3c, 2-(4-(4-Methyl-5-(2-(4-methylphenyl)-2-oxo-ethylthio)-4H-1,2,4-triazol-3yl)-phenyl)-5(6)-chloro-1H-benz-imidazole] | 26.11 ± 0.74% | 20.21 ± 0.61% | 39.18 ± 0.71% | 17.89 ± 0.54% |  |  |  |  |  |  | 
3 | CCn1c(SCC(=O)c2ccc(Br)cc2)nnc1-c1ccc(-c2nc3cc(F)ccc3[nH]2)cc1 [3n, 2-(4-(4-Ethyl-5-(2-(4-bromophenyl)-2-oxo-ethylthio)-4H-1,2,4-triazol-3yl)-phenyl)-5(6)-fluoro-1H-benz-imidazole] | 27.10 ± 0.53% | 18.77 ± 0.42% | 49.27 ± 0.55% | 30.21 ± 0.49% |  |  |  |  |  |  | 
4 | CCn1c(SCC(=O)c2ccc(O)c(O)c2)nnc1-c1ccc(-c2nc3cc(F)ccc3[nH]2)cc1 [3p, 2-(4-(4-Ethyl-5-(2-(3,4-dihydroxyphenyl)-2-oxo-ethylthio)-4H-1,2,4-triazol-3yl)-phenyl)-5(6)-fluoro-1H-benzimidazole] | 53.19 ± 0.46% | 31.44 ± 0.38% | 87.26 ± 1.17% |  | 77.48 ± 1.98% | 71.62 ± 1.08% | 47.83 ± 0.97% | 39.33 ± 0.67% | 15.47 ± 0.64% | 140 ± 5.1 nM | 
5 | CCn1c(SCC(=O)c2ccc(C#N)cc2)nnc1-c1ccc(-c2nc3cc(F)ccc3[nH]2)cc1 [3m, 2-(4-(4-Ethyl-5-(2-(4-cyanophenyl)-2-oxo-ethylthio)-4H-1,2,4-triazol-3yl)-phenyl)-5(6)-fluoro-1H-benz-imidazole] | 48.11 ± 0.38% | 20.66 ± 0.45% | 59.03 ± 0.88% | 39.26 ± 0.46% |  |  |  |  |  |  | 
6 | CCn1c(SCC(=O)c2ccc(O)c(O)c2)nnc1-c1ccc(-c2nc3cc(Cl)ccc3[nH]2)cc1 [3h, 2-(4-(4-Ethyl-5-(2-(3,4-dihydroxyphenyl)-2-oxo-ethylthio)-4H-1,2,4-triazol-3yl)-phenyl)-5(6)-chloro-1H-benzimidazole] | 61.26 ± 0.90% | 35.20 ± 0.42% | 98.25 ± 1.12% |  | 90.23 ± 1.03% | 81.25 ± 1.08% | 65.32 ± 0.97% | 44.28 ± 0.71% | 17.20 ± 0.58% |  | mixed type inhibition; also recorded: reversible inhibitors; also recorded: reversible and mixed-type
7 | Cc1ccc(C(=O)CSc2nnc(-c3ccc(-c4nc5cc(F)ccc5[nH]4)cc3)n2C)cc1 [3k, 2-(4-(4-Methyl-5-(2-(4-methylphenyl)-2-oxo-ethylthio)-4H-1,2,4-triazol-3yl)-phenyl)-5(6)-fluoro-1H-benz-imidazole] | 36.17 ± 0.93% | 21.16 ± 0.97% | 42.29 ± 0.71% | 27.88 ± 0.67% |  |  |  |  |  |  | 
8 | Cn1c(SCC(=O)c2ccc(O)c(O)c2)nnc1-c1ccc(-c2nc3cc(F)ccc3[nH]2)cc1 [3l, 2-(4-(4-Methyl-5-(2-(3,4-dihydroxyphenyl)-2-oxo-ethylthio)-4H-1,2,4-triazol-3yl)-phenyl)-5(6)-fluoro-1H-benzimidazole] | 55.43 ± 0.47% | 29.88 ± 0.38% | 94.58 ± 1.74% |  | 73.18 ± 1.17% | 68.20 ± 0.97% | 48.11 ± 0.61% | 32.29 ± 0.58% | 18.77 ± 0.37% | 169 ± 7.2 nM | 
9 | CCn1c(SCC(=O)c2ccc(C)cc2)nnc1-c1ccc(-c2nc3cc(Cl)ccc3[nH]2)cc1 [3g, 2-(4-(4-Ethyl-5-(2-(4-methylphenyl)-2-oxo-ethylthio)-4H-1,2,4-triazol-3yl)-phenyl)-5(6)-chloro-1H-benz-imidazole] | 31.89 ± 0.99% | 24.75 ± 0.95% | 37.20 ± 0.68% | 18.33 ± 0.38% |  |  |  |  |  |  | 
10 | CCn1c(SCC(=O)c2ccc(Br)cc2)nnc1-c1ccc(-c2nc3cc(Cl)ccc3[nH]2)cc1 [3f, 2-(4-(4-Ethyl-5-(2-(4-bromophenyl)-2-oxo-ethylthio)-4H-1,2,4-triazol-3yl)-phenyl)-5(6)-chloro-1H-benz-imidazole] | 29.15 ± 0.59% | 17.88 ± 0.40% | 47.22 ± 0.67% | 24.08 ± 0.48% |  |  |  |  |  |  | 
11 | Cn1c(SCC(=O)c2ccc(Br)cc2)nnc1-c1ccc(-c2nc3cc(F)ccc3[nH]2)cc1 [3j, 2-(4-(4-Methyl-5-(2-(4-bromophenyl)-2-oxo-ethylthio)-4H-1,2,4-triazol-3yl)-phenyl)-5(6)-fluoro-1H-benz-imidazole] | 29.64 ± 0.87% | 21.44 ± 0.70% | 48.51 ± 0.88% | 18.39 ± 0.60% |  |  |  |  |  |  | 
12 | Cn1c(SCC(=O)c2ccc(O)c(O)c2)nnc1-c1ccc(-c2nc3cc(Cl)ccc3[nH]2)cc1 [3d, 2-(4-(4-Methyl-5-(2-(3,4-dihydroxyphenyl)-2-oxo-ethylthio)-4H-1,2,4-triazol-3yl)-phenyl)-5(6)-chloro-1H-benzimidazole] | 51.19 ± 0.99% | 38.12 ± 0.41% | 98.55 ± 1.17% |  | 87.26 ± 1.28% | 78.85 ± 1.19% | 67.18 ± 0.92% | 45.32 ± 0.82% | 15.75 ± 0.48% |  | mixed type inhibition; also recorded: reversible inhibitors; also recorded: reversible and mixed-type
13 | CCn1c(SCC(=O)c2ccc(C)cc2)nnc1-c1ccc(-c2nc3cc(F)ccc3[nH]2)cc1 [3o, 2-(4-(4-Ethyl-5-(2-(4-methylphenyl)-2-oxo-ethylthio)-4H-1,2,4-triazol-3yl)-phenyl)-5(6)-fluoro-1H-benz-imidazole] | 25.99 ± 0.38% | 20.08 ± 0.46% | 28.06 ± 0.33% | 19.22 ± 0.30% |  |  |  |  |  |  | 
14 | Cn1c(SCC(=O)c2ccc(C#N)cc2)nnc1-c1ccc(-c2nc3cc(F)ccc3[nH]2)cc1 [3i, 2-(4-(4-Methyl-5-(2-(4-cyanophenyl)-2-oxo-ethylthio)-4H-1,2,4-triazol-3yl)-phenyl)-5(6)-fluoro-1H-benz-imidazole] | 43.51 ± 0.78% | 18.49 ± 0.50% | 61.22 ± 1.02% | 38.28 ± 0.67% |  |  |  |  |  |  | 
15 | Cn1c(SCC(=O)c2ccc(C#N)cc2)nnc1-c1ccc(-c2nc3cc(Cl)ccc3[nH]2)cc1 [3a, 2-(4-(4-Methyl-5-(2-(4-cyanophenyl)-2-oxo-ethylthio)-4H-1,2,4-triazol-3yl)-phenyl)-5(6)-chloro-1H-benz-imidazole] | 40.28 ± 0.98% | 25.13 ± 0.56% | 68.18 ± 1.05% | 47.26 ± 0.62% |  |  |  |  |  |  | 
16 | Cn1c(SCC(=O)c2ccc(Br)cc2)nnc1-c1ccc(-c2nc3cc(Cl)ccc3[nH]2)cc1 [3b, 2-(4-(4-Methyl-5-(2-(4-bromophenyl)-2-oxo-ethylthio)-4H-1,2,4-triazol-3yl)-phenyl)-5(6)-chloro-1H-benz-imidazole] | 28.15 ± 0.97% | 18.42 ± 0.88% | 44.20 ± 0.87% | 26.18 ± 0.63% |  |  |  |  |  |  | 
